Consider 2 molecules from patent US20220372008A1 (VIDYASIRIMEDHI INSTITUTE OF SCIENCE AND TECHNOLOGY, priority 2019, published 2022).

For one data set, the target named is firefly luciferase (Photinus pyralis, UniProt P08659).
The format of data set [1] is physicochemical. On the procedure:
The term “thermostable dehalogenase” used herein refers to the dehalogenase or HadA, which is reengineered or modified, particularly modified on the surface of a wild-type dehalogenase or HadA. The reengineered or modified dehalogenase or HadA, which is called a thermostable HadA or HadA G513T, has an improvement on a temperature stability. The catalytic efficiency of the thermostable HadA or HadA G513T is in a broader range of temperature from 25-50° C. Further, the wild-type dehalogenase or HadA is a dechlorinating monooxygenase that can catalyze the elimination of nitro- and halides (F, Cl, Br, I) group from nitro- and halogenated phenols substrate. The wild type HadA can catalyze the reaction at 25° C. for 24 h. Whereas the reaction at higher temperature (>30° C.), the half-life of wild type HadA is dramatically decrease for 20 min. In accordance with various embodiments, the present disclosure relates to luciferin derivatives and a method for synthesis of the luciferin derivatives.
The thermostable dehalogenase is a modified HadA, particularly HadA G513T (Thermostable dehalogenase; HadA G513T), containing an amino acid sequence, which is set forth in SEQ ID NO.1 as shown in FIG. 8. The thermostable dehalogenase or HadA G513T is able to catalyze in a range of temperature from 25-50° C. and its half-life at 50° C. is 200 min. However, […]

Chain of firefly luciferase (P08659 whole entry): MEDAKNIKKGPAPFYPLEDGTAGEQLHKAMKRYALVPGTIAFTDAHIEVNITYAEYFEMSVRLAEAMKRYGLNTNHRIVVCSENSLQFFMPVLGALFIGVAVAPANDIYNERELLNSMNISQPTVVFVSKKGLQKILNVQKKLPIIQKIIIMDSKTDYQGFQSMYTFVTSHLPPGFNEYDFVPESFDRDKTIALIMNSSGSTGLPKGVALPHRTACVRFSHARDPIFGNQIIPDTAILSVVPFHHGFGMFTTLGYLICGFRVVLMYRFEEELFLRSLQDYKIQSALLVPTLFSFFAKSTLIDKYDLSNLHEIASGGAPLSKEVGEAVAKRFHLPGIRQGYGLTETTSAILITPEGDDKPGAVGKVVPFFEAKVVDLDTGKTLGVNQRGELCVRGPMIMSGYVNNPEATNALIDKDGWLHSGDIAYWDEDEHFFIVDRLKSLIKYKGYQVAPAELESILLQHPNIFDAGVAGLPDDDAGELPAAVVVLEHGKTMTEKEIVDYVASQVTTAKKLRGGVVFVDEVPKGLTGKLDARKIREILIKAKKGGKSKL
Experimental for firefly luciferase: The pure luciferin and the purified luciferin derivatives, which are derived from the synthesis and purification methods, reacts with the firefly luciferase, and then the emission wavelength is measured.
The reaction between the luciferin derivatives of the present disclosure and the firefly luciferase can emit the light.

On to 7′-bromoluciferin, for which, at firefly luciferase (spectrofluorometer under bioluminescent mode), the “emitting wavelength as substrate for the firefly luciferase” value was 604 nm. The maximum emission wavelength on firefly luciferase (substrate for wild-type firefly luciferase, FIG. 5) came to 604 nm.

B1: HadA G513T: modified HadA, thermostable dehalogenase with amino acid sequence SEQ ID NO.1 (protein, listed as Escherichia coli)
chain: MIRTGTQYLESLNDGRNVWVGNEKIDNVATHPKTRDYAQRHADFYDLHHRPDLQDVMTYIDEGGQRRAMQWFGHRDKEQLRRKRKYHETVMREMAGASFPRTPDVNNYVLTTYIDDPAPWETQSIGDDGHIKAGKIVDFIRYAREHDLNCAPQFVDPQMDRSNPDAQERSPGLRVVEKNEKGIVVNGVKAIGTGVAFADWIHIGVFFRPGIPGDQVIFAATPVNTPGVTIVCRESLVKDDKVEHPLAAQGDELDGMTVFENVFIPWSHVFHIGNPNHAKLYPQRVFDWLHYHALIRQMVRAELVAGLAVLITEHIGTNKIPAVQTRVAKLIGFHQAMLAHLIASEELGFHTPGGHYKPNILIYDFGRALYLENFSQMIYELVDLSGRSALIFASEDQWNDDKLNGWFERMNNGPVGRPHDRVKIGRVIRDLFLTDWGSRLFVFENFNGTPLQGIRMLTMQRAEFSGSGPYGKLARQVCGIDSAVTDDTEYRKTADYAKALDAARHQEEVALATAMAI
In the case of B1, in data set [1], the half-life (in general, how long it takes for the measured level to halve) worked out at 3.33 h.
